Values of other authors, collected in US20230218796A1, “Tissue adhesive for use in a treatment method in which an ophthalmological implant is implanted in a human or animal patient, and ophthalmological implantation system” (priority 2020, published 2023).

How the values were obtained:
[1] = test system: epithelial cell layer of the cornea; conditions: free thapsigargin released into the aqueous humor in the anterior chamber
[2] = test system: cell growth in the capsular bag

C/C=C(/C)C(=O)O[C@H]1C(C)=C2[C@H]([C@@H]1OC(=O)CCCCCCC)[C@@](C)(OC(C)=O)C[C@H](OC(=O)CCC)[C@@]1(O)[C@H]2OC(=O)[C@@]1(C)O [thapsigargin]
damage to the cornea on free release into the aqueous humor in the anterior chamber [1]: can damage the epithelial cell layer of the cornea | higher concentration that induces cell death ([2]; higher concentrations): 10 to 100 µM | low concentration that greatly reduces cell growth in the capsular bag ([2]; low concentrations): 100 nM
